ChEMBL document CHEMBL1131698, “Platelet glycoprotein IIb/IIIa receptor antagonists derived from isoxazolidines” (Bioorg Med Chem Lett, 1999)

Organism: Homo sapiens
Assay: Compound was tested for its in vitro activity in the inhibition of platelet aggregation using human platelet rich plasma
Assay type: functional

Row | Compound | IC50
1 | Cc1cccc(S(=O)(=O)N[C@@H](CNC(=O)C[C@@H]2C[C@H](c3ccc(C(=N)N)cc3)N(C(C)C)O2)C(=O)O)c1 | 140 nM
2 | Cc1ccccc1S(=O)(=O)N[C@@H](CNC(=O)C[C@@H]1C[C@H](c2ccc(C(=N)N)cc2)N(C)O1)C(=O)O | 58 nM
3 | Cc1noc(C)c1S(=O)(=O)N[C@@H](CNC(=O)C[C@@H]1C[C@H](c2ccc(C(=N)N)cc2)N(C)O1)C(=O)O | 84 nM
4 | Cc1cccc(S(=O)(=O)N[C@@H](CNC(=O)C[C@@H]2C[C@H](c3ccc(C(=N)N)cc3)N(c3ccccc3)O2)C(=O)O)c1 | 530 nM
5 | Cc1cccc(S(=O)(=O)N[C@@H](CNC(=O)C[C@@H]2C[C@H](c3ccc(C(=N)N)cc3)N(Cc3ccccc3)O2)C(=O)O)c1 | 190 nM
6 | Cc1cccc(S(=O)(=O)N[C@@H](CNC(=O)C[C@@H]2C[C@H](c3ccc(C(=N)N)cc3)N(C)O2)C(=O)O)c1 | 28 nM
7 | CCCCOC(=O)N[C@@H](CNC(=O)C[C@@H]1C[C@H](c2ccc(C(=N)N)cc2)N(C)O1)C(=O)O | 164 nM
8 | Cc1cccc(S(=O)(=O)N[C@@H](CNC(=O)C[C@H]2C[C@H](c3ccc(C(=N)N)cc3)N(C)O2)C(=O)O)c1 | 1500 nM
